Consider 14 molecules from patent US20040157891A1, “Inhibitor of cox” (FUJISAWA PHARMACEUTICAL CO., LTD., priority 2003, published 2004).

One data set has as its target T1, COX-I (Homo sapiens, UniProt P23219).
T1 construct: Fresh blood was collected by syringe without anticoagulants from volunteers with consent; from tissue; host or cells: fresh human whole blood from volunteers, left to clot; TXB2 read-out
The data set can be described thus: Whole blood assay for COX-I (TXB2 production). The class given is cell-based. The following applies: 1 hr at 37° C. The method, then:
Whole blood assay for COX-I
Fresh blood was collected by syringe without anticoagulants from volunteers with consent. The subjects had no apparent inflammatory conditions and had not taken any medication for at least 7 days prior to blood collection.
500 μL Aliquots of human whole blood were immediately incubated with 2 μL of either dimethyl sulfoxide vehicle or a test compound at final concentrations for 1 hr at 37° C. to allow the blood to clot. Appropriate treatments (no incubation) were used as blanks. At the end of the incubation, 5 μL of 250 mM Indomethacin was added to stop the reaction. The blood was centrifuged at 6000×g for 5 min at 4° C. to obtain serum. A 100 μL aliquot of serum was mixed with 400 μL methanol for protein precipitation. The supernatant was obtained by centrifuging at 6000×g for 5 min at 4° C. and was assayed for TXB2 using an enzyme immunoassay kit according to the manufacturer's procedure. For a test compound, the results were expressed as percent inhibition of thromboxane B2(TXB2) production relative to control incubations containing dimethyl sulfoxide vehicle.
The data were analyzed by that a test compound at the indicated concentrations was changed log value and was applied simple linear regression. IC50 value was calculated by least squares method.

A further data set deals with T2, COX-II (Homo sapiens, UniProt P35354).
T2 construct: incubation of the blood with 10 μL of 5 mg/mL lipopolysaccharide for 24 hrs at 37° C. for induction of COX-II; from tissue; host or cells: heparinized fresh human whole blood from volunteers, LPS-stimulated for 24 h; PGE2 read-out
T2 sequence (P35354 18-604): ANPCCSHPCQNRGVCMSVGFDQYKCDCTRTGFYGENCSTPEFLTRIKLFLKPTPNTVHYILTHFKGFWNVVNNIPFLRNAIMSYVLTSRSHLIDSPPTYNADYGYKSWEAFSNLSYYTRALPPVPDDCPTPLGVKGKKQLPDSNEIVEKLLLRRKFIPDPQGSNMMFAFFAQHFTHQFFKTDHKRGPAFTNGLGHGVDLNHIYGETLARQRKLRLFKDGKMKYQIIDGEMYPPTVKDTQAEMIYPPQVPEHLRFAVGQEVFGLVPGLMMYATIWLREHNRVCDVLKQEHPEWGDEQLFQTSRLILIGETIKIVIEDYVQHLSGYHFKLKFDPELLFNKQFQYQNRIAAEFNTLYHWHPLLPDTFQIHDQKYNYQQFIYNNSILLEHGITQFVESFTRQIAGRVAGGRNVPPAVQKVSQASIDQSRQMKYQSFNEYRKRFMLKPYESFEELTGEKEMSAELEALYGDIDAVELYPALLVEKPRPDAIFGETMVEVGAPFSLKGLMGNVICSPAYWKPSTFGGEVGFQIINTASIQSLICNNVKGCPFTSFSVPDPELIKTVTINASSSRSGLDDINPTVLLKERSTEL
The data set can be described thus: Whole blood assay for COX-II (LPS-induced PGE2 production). The following applies: lipopolysaccharide 24 hrs at 37° C. The class given is cell-based. The method, then: Whole Blood Assay for COX-II
Fresh blood was collected in heparinized tubes by syringe from volunteers with consent. The subjects had no apparent inflammatory conditions and had not taken any medication for at least 7 days prior to blood collection.
500 μL aliquots of human whole blood were incubated with either 2 μL dimethyl sulfoxide vehicle or 2 μL of a test compound at final concentrations for 15 min at 37° C. This was followed by incubation of the blood with 10 μL of 5 mg/mL lipopolysaccharide for 24 hrs at 37° C. for induction of COX-II. Appropriate PBS treatments (no LPS) were used as blanks. At the end of the incubation, the blood was centrifuged at 6000×g for 5 min at 4° C. to obtain plasma. A 100 μL aliquot of plasma was mixed with 400 μL methanol for protein precipitation. The supernatant was obtained by centrifuging at 6000×g for 5 min at 4° C. and was assayed for prostaglandin E2 (PGE2) using a radioimmunoassay kit after conversion of PGE2 to its methyl oximate derivative according to the manufacturer's procedure.
For a test compound, the results were expressed as percent inhibition of PGE2 production relative to control incubations containing dimethyl sulfoxide vehicle. The data were analyzed by that a test compound at the indicated concentrations was changed log value and was applied simple linear regression. IC50 value was calculated by least squares method.

Another data set relates to arthritic rats. The data set can be described thus: Analgesic activity: effect on adjuvant arthritis in rats (Randall-Selitto). The settings on record: single dose 3.2 mg/kg; mechanical pain threshold of left hind paw 2 hrs after administration; ratio to non-treated rats. The class given is in vivo, Lewis rats.

pIC50: −log10 of the molar value.

T1 sequence (P23219 24-599): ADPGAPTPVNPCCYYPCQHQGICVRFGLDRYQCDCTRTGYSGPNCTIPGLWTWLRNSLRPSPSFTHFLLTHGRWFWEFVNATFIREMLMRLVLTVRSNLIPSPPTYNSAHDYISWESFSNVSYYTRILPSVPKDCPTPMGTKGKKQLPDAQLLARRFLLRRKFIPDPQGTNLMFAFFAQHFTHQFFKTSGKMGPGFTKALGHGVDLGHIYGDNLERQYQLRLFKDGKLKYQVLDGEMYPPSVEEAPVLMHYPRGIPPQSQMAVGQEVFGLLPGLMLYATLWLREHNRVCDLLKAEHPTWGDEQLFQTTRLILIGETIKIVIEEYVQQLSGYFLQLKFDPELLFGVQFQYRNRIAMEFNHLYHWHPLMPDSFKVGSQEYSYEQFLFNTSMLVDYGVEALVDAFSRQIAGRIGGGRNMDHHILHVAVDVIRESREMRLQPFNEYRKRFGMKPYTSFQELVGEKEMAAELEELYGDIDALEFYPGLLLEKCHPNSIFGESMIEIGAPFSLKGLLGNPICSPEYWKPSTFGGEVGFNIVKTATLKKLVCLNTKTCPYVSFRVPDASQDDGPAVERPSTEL

Usually melting point stands for the temperature of the solid-liquid transition. Consider `COc1ccc(-c2oc(CO)nc2-c2ccc(C#N)cc2)cc1` [Example 79, 4-[2-(Hydroxymethyl)-5-(4-methoxyphenyl)-1,3-oxazol-4-yl]benzonitrile], for which the melting point was in the range of 151 to 153 °C.

For `COCc1nc(-c2ccc(OC)cc2)c(-c2ccc(C#N)cc2)o1` [Example 80-3, 4-[2-(Methoxymethyl)-4-(4-methoxyphenyl)-1,3-oxazol-5-yl]benzonitrile], the melting point lay within 85 to 86 °C.

A word on the pIC50: it is the negative decadic logarithm of the IC50, by convention in mol/L. Take `COc1ccc(-c2nc(C(F)(F)F)oc2-c2ccc(OCCNS(C)(=O)=O)cc2)cn1` [Example 54, N-(2-{4-[4-(6-Methoxy-3-pyridinyl)-2-(trifluoromethyl)-1,3-oxazol-5-yl]phenoxy}ethyl)methanesulfonamide]: the results for the pIC50 at COX-I and at COX-II were greater than 8.00 and less than 7.00, respectively. The “The coefficient of analgesic” value in the data set on arthritic rats is greater than 1.5.

For `COc1ccc(-c2nc(C(N)=O)oc2-c2ccc(OC)cc2)cc1` [Example 2, 4,5-Bis(4-methoxyphenyl)-1,3-oxazole-2-carboxamide], the melting point fell in the range of 133 to 135 °C.

Take `COc1ccc(-c2nc(C(F)F)oc2-c2ccc(OCCO)cc2)cn1` [Example 33, 2-{4-[2-(Difluoromethyl)-4-(6-methoxy-3-pyridinyl)-1,3-oxazol-5-yl]phenoxy}ethanol]: the melting point was in the range of 126 to 128 °C. The pIC50 at COX-I is greater than 8.00. The same molecule gave a pIC50 at COX-II of less than 7.00. Further, the “The coefficient of analgesic” value with arthritic rats is greater than 1.5.

In the case of `COc1ccc(-c2nc(C(F)(F)F)oc2-c2ccc(OCCNC(N)=O)cc2)cn1` [Example 55, N-(2-{4-[4-(6-Methoxy-3-pyridinyl)-2-(trifluoromethyl)-1,3-oxazol-5-yl]phenoxy}ethyl)urea], the pIC50 at COX-I is greater than 8.00; on COX-II, less than 7.00. In addition, the “The coefficient of analgesic” value in the data set on arthritic rats is greater than 1.5.

For the molecule `COc1ccc(-c2oc(C(F)F)nc2-c2ccc(OC)nc2)cc1` [Example 77, 5-[2-(Difluoromethyl)-5-(4-methoxyphenyl)-1,3-oxazol-4-yl]-2-methoxypyridine], the melting point was in the range of 87 to 89 °C.

Take `COc1ccc(-c2nc(C(F)F)oc2-c2ccc(OCCO)cc2)cc1` [Example 12, 2-{4-[2-(Difluoromethyl)-4-(4-methoxyphenyl)-1,3-oxazol-5-yl]phenoxy}ethanol]: the melting point is 114 to 116 °C. In addition, the pIC50 against COX-I is greater than 8.00. For the same molecule, the pIC50 at COX-II is less than 7.00. The “The coefficient of analgesic” value with arthritic rats is on record as greater than 1.5.

For the molecule `COc1ccc(-c2oc(C(=O)c3ccccc3)nc2-c2ccc(OC)nc2)cc1` [Example 73, [5-(4-Methoxyphenyl)-4-(6-methoxy-3-pyridinyl)-1,3-oxazol-2-yl](phenyl)methanone], the melting point lay within 156 to 158 °C.

In the case of `COc1ccc(-c2nc(C3CC3)oc2-c2ccc(OCCNS(C)(=O)=O)cc2)cn1` [Example 122, N-(2-{4-[2-Cyclopropyl-4-(6-methoxy-3-pyridinyl)-1,3-oxazol-5-yl]phenoxy}ethyl)methanesulfonamide], the pIC50 against COX-I is greater than 8.00; against COX-II, less than 7.00. In addition, in the data set on arthritic rats, the “The coefficient of analgesic” value was greater than 1.5.

Regarding `COc1ccc(-c2nc(C3CC3)oc2-c2ccc(OCCO)cc2)cn1` [Example 118, 2-{4-[2-Cyclopropyl-4-(6-methoxy-3-pyridinyl)-1,3-oxazol-5-yl]phenoxy}ethanol], the pIC50 was greater than 8.00 on COX-I and less than 7.00 against COX-II. The “The coefficient of analgesic” value with arthritic rats was greater than 1.5.

In turn, `COc1ccc(-c2nc(C(=O)c3ccccc3)oc2-c2ccc(OC)cc2)cc1` [Example 6, [4,5-Bis(4-methoxyphenyl)-1,3-oxazol-2-yl](phenyl)methanone] had a melting point of 164 to 166 °C.

`CCOC(=O)c1nc(-c2ccc(OC)cc2)c(-c2ccc(OC)cc2)o1` [Example 1-2, Ethyl 4,5-bis(4-methoxyphenyl)-1,3-oxazole-2-carboxylate] showed a melting point of 95 to 97 °C.

In turn, `COc1ccc(-c2nc(C(C)=O)oc2-c2ccc(OC)cc2)cc1` [Example 5, 1-[4,5-Bis(4-methoxyphenyl)-1,3-oxazol-2-yl]ethanone] registered a melting point of 139 to 140 °C.
